Data reported in patent publication EP0649843B1, “THIAZOLINE DERIVATIVE” (TAISHO PHARMACEUTICAL CO. LTD, priority 1992, dated 1994).
pIC50: −log10 of the molar value. Where a name gives a salt, the structure may show the parent alone.

Tests used:
[1] = target: T1, fibrinogen receptor (GpIIb/IIIa) (Homo sapiens, UniProt P05106+P08514); experiment: Human blood platelet fibrinogen binding test; settings: inhibition of binding of 125I labelled human fibrinogen to human blood platelet suspension; ADP final concentration 10 µM
T1 construct: gel filtration using Sepharose 2B column to give a blood platelet suspension; endogenous in cells; host or cells: human blood platelets (gel-filtered, from platelet rich plasma of a healthy donor)
Protocol: The precipitate was suspended in a Tyrode's solution (20% fetal bovine serum, 2 mM Mg^2+), followed by gel filtration using Sepharose 2B column to give a blood platelet suspension (1 x 10^9/ml) apart from fibrinogen. […] The binding inhibition rate of the test drug was then calculated.

[2] = test system: Blood platelet aggregation; experiment: Inhibition test of human in vitro platelet aggregation (ADP-induced); type: cell-based
Protocol: The blood platelet counts of PRP were adjusted to (50 to 60) x 10^4/µl by diluting with PPP.
Blood platelet aggregation was determined according to the method of Born G.V.R., [Nature, vol. […] That is, a solution of the compound of Formula (I) as a test drug in dimethyl sulfoxide was adjust to the desired concentration with a physiological saline solution. 25 µl of the solution was added to 250 µl of PRP and incubated at 37°C for 3 minutes, and 25 µl of ADP (final concentration : 7 µM) was added thereto.

T1 sequence (P08514 32-887 limits assumed): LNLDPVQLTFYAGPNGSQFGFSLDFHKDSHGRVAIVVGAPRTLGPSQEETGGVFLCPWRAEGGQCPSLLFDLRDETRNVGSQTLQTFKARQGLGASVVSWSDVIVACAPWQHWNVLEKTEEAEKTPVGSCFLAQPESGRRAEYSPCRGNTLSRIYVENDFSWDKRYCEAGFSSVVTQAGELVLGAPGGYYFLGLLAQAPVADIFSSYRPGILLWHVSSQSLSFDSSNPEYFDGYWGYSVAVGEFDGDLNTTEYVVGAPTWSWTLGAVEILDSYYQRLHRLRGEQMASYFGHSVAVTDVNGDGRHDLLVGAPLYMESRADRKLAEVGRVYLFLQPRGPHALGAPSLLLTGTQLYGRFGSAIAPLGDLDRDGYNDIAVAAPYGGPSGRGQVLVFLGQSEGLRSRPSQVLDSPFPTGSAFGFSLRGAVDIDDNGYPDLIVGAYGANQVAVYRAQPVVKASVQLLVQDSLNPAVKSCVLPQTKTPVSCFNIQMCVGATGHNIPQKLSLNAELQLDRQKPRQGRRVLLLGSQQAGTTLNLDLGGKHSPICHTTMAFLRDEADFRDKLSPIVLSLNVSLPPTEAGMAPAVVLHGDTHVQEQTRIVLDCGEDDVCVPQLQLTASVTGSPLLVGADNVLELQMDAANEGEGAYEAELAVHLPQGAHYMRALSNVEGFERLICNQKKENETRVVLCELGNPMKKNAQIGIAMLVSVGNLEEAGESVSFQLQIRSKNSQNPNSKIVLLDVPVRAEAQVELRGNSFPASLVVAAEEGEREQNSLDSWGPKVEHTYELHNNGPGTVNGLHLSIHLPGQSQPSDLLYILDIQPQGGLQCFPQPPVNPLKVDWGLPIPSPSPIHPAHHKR
T1 sequence (P08514 891-1039 partner limits assumed): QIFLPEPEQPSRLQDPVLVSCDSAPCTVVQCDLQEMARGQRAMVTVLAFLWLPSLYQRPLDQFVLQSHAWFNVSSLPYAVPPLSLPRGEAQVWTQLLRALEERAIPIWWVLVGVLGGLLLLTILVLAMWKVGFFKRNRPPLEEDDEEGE
T1 sequence (P05106 27-788): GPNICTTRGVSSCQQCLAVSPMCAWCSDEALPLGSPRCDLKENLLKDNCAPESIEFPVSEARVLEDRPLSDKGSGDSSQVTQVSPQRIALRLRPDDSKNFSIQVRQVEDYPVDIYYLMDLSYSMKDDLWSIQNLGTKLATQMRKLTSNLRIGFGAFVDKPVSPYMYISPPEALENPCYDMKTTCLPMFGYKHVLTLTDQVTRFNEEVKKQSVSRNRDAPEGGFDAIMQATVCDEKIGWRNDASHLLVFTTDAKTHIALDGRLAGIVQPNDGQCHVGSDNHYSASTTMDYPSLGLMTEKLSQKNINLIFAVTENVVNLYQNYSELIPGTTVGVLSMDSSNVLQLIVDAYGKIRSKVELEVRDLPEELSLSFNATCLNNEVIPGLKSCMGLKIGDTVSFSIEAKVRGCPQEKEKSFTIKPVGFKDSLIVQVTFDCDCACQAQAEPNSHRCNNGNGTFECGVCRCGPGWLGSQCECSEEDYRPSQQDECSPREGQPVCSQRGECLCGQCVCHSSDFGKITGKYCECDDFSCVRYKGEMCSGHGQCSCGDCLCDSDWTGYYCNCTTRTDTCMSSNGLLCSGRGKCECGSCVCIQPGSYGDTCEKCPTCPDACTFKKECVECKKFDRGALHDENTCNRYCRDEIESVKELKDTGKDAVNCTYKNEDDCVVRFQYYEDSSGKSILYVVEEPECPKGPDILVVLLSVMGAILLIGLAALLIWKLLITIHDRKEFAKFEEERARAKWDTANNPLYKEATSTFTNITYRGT

Compound | pIC50 [1] | pIC50 ([2]; concentration causing 50% inhibition of the maximum aggregation, human PRP, ADP final concentration 7 µM, incubated at 37°C for 3 minutes) | pIC50 ([2]; Homo sapiens, Platelet, 0.05 h)
3-[3-(4-amidinobenzoyl)benzamide]propionic acid [Control, reference compound] | 7.07 | 6.98 | –
Cc1c(C(=O)NCCC(=O)O)sc(=NC(=O)c2ccc(C(=N)N)cc2)n1C [Compound 5, N-(2-carboxyethyl)-2-(4-amidinobenzoylimino)-3,4-dimetylthiazoline-5-carboxamide hydrobromide] | 8.29 | – | 7.77
CNC(=N)c1ccc(C(=O)N=c2sc(C(=O)NCCC(=O)O)c(C)n2C)cc1 [Compound 7, N-(2-carboxyethyl)-2-[4-(N-methylamidino)benzoylimino]-3,4-dimethyl-3H-thiazoline-5-carboxamide hydrobromide] | 8.57 | – | –
Cc1c(C(=O)NCCC(=O)O)sc(=NC(=O)c2ccc(C(=N)N)cc2)n1Cc1ccccc1 [Compound 17] | – | – | 7.72
CCCCn1c(C)c(C(=O)NCCC(=O)O)sc1=NC(=O)c1ccc(C(=N)N)cc1 [Compound 22] | – | – | 7.74
COC(=O)CCNC(=O)c1sc(=NC(=O)c2ccc(C#N)cc2)n(C(C)C)c1C [Compound 23] | 8.20 | – | –
Cc1c(C(=O)NCCC(=O)O)sc(=NC(=O)c2ccc(C(=N)N)cc2)n1C(C)C [Compound 27] | – | – | 7.82
Cc1c(C(=O)NCCC(=O)O)sc(=NC(=O)c2ccc(C(=N)NCc3ccccc3)cc2)n1C [Compound 29] | 8.10 | – | 7.85
Cc1c(C(=O)NCCC(=O)O)sc(=NC(=O)c2ccc(C(=N)Nc3ccccc3)cc2)n1C [Compound 31, N-(2-carboxyethyl)-2-[4-(N-phenylamidino)benzoylimino]-3,4-dimethyl-3H-thiazoline-5-carboxamide hydrobromide] | – | – | 7.70
Cc1c(C(=O)NCCC(=O)O)sc(=NC(=O)c2ccc(C(=N)N(C)Cc3ccccc3)cc2)n1C [Compound 35, N-(2-carboxyethyl)-2-[4-(N-methyl-N-benzylamidino)benzoylimino]-3,4-dimethyl-3H-thiazoline-5-carboxamide hydrobromide] | 9.00 | – | –
Cc1c(C(=O)NCCC(=O)O)sc(=NC(=O)c2ccc(C(=N)N(C)C)cc2)n1C [Compound 37, N-(2-carboxyethyl)-2-[4-(N,N-dimethylamidino)benzoylimino]-3,4-dimethyl-3H-thiazoline-5-carboxamide hydrobromide] | 8.89 | – | –
